In patent US11612609B2, “Uses of oxygenated cholesterol sulfates (OCS)” (Virginia Commonwealth University, priority 2013, dated 2023):
Entries after “also recorded” stand apart in the source; their conditions may differ.

Experiments:
[1] = system: transient focal cerebral ischemia (tMCAO); assay: Brain stroke study, transient middle cerebral artery occlusion (tMCAO) in rats (Example 5); assay type: in vivo, Sprague Dawley rats; conditions: for tissue viability (T2 relaxation time): lower T2 in ms vs vehicle
Method: Transient focal cerebral ischemia was produced by right side middle cerebral artery (MCA) occlusion in male Sprague Dawley rats under anesthesia. After 120 min of ischemia, the MCA blood flow was restored. The procedure was therefore named tMCAO. All rats were given an i.p. injection of saline (4 ml per rat) after the surgery. Three groups of rats were used in the study: • Group A: 12 sham operated rats received vehicle by ip injection • Group B: 12 tMCAO rats received vehicle by ip injection • Group C: 12 tMCAO rats received 25HC3S by ip injection The parameters measured were as follows: • Mean body weight over time • Mean 7- and 20-point Neuroscore over time • Limb Placing test results over time • Mean infarct volumes (mm3), edema volumes (mm3) and T2-relaxation times (ms) Behavioral testing was conducted at 24 hours, 3 days, and 7 days post transient middle cerebral artery occlusion (tMCAO). Both 20-point Neuroscore and 7-point Neuroscore tests were conducted to assess post-ischemic motor and behavioral deficits. The Limb Placing test was conducted to assess the sensory motor integration of fore- and hind-limbs responses to tactile and proprioceptive stimulation. MRI acquisitions in vivo for all rats were performed at 24 h and 7 days after tMCAO.Lesion size, tissue viability (T2 in milliseconds), and brain edema were determined using absolute T2-MRI. Eighteen (18) coronal slices of thickness 1 mm were acquired using field-of-view imaging matrix. Absolute T2-values from contra-lateral cortex were used as a reference for tissue viability. All MRI data were analyzed using Matlab software. The infarct volume/oedema analysis was done by an observer blinded to the treatment groups. Results

[2] = Human Phase I single dose ascending study (Example 7); assay type: in vivo
Method: A randomized, double blind, and placebo controlled single dose ascending First-in-human Phase 1 study was conducted. The active agent, 25HC3S, was suspended at 30, 100, 300, and 600 mg in 60 mL of ORA-Blend® SF sugar-free flavored oral suspending vehicle. As Placebo dosage form, calcium carbonate, USP, was suspended at 30, 100, 300, and 600 mg in 60 mL of ORA-Blend® SF sugar-free flavored oral suspending vehicle. The suspension, either active or Placebo, was orally administered to each subject. Each dose group had 4 subjects receiving a single dose of active and 2 subjects receiving a single dose of Placebo. All subjects were monitored by health professionals for any potential adverse events for 7 days following administration.

[3] = system: renal ischemia/reperfusion; assay: Kidney ischemia-reperfusion in rats (Example 3); assay type: in vivo, Lewis rats
Method: 25HC3S was dissolved in propylene glycol, at 20 mg/mL, and stored at room temperature as the stock solution. Before use, 3 parts of PBS was mixed with 1 part of DV928 stock solution. The final concentration for injection was 5 mg/ml. Preparation of the Formulation for oral gavage: […]
25HC3S was suspended in 0.5% carboxymethylcellulose (CMC) containing 0.05% tween-80, at 10 mg/mL, and stored at room temperature and mixed well before use.
Adult (9- to 11-week-old) male Lewis (LEW, RE11) rats, 225-250 gram, were housed in a controlled 12-hr light-dark cycle environment and allowed free access to water and regular rat chow. All rats were anesthetized with pentobarbital 40 mg/kg i.p.
Ischemia of the left kidney was performed by transient occlusion of the left renal artery and vein, and ureter for 50 min with a vascular micro-clip. The skin was temporarily closed during the ischemia period, and the rats were put on a heating pad maintained at a temperature of 37° C. At reperfusion, the right kidney was removed before closing the abdomen with 4-0 silk suture.
Animals were randomly divided into 5 groups: • Group A. 25HC3S—i.p. dosing (as pre-treatment) N=12 • Group B. 25HC3S—i.p. dosing (as post-treatment) N=12 • Group C. 25HC3S—oral dosing (as pre-treatment) N=12 • Group D. Vehicle control, i.p. (as pre-treatment) N=6 • Group E. Vehicle control, oral (as pre-treatment) N=6
Rats in the pre-treatment groups received active or vehicle 1 day before (Day −1) the surgical intervention (I/R event) and continued for a total of 4 days. Rats in the post-treatment group received the 1st treatment at 30 min after the renal artery occlusion and continued for a total of 3 days. Blood samples were taken from all rats 2 days before the surgery (as baseline), 3 days after the surgery, and 7 days after the surgery for serum creatinine and blood urea nitrogen (BUN) analysis. All rats were sacrificed on Day 7.

[4] = system: sepsis induced by the endotoxin lipopolysaccaride (LPS); assay: Sepsis induced by LPS, 25HC3S given 2 hrs after LPS (Examples 6A and 6B); assay type: in vivo, C57BL/6J mice; conditions: 25HC3S 25 mg/kg 2 hrs after LPS, vs vehicle
Method: To examine the effect of 25HC3S on sepsis induced by the endotoxin lipopolysaccaride (LPS), 11-week-old female C57BL/6J mice were IV-injected with LPS (30 mg/kg or 40 mg/kg, in PBS) 2 hrs before being treated by administration of 25HC3S (25 mg/kg, 10% propylene glycol in PBS), and mortality was monitored (% survival).

[5] = system: high dose of acetaminophen (ATMP); assay: ATMP 600 mg/kg in mice, 10-day mortality and liver function markers (Example 1B); assay type: in vivo
Method: In another set of experiments, female mice were peritoneally-injected with acetaminophen (600 mg/kg, in 20% EtOH in PBS) and were then further treated by peritoneal injection of 25HC3S (25 mg/kg in 10% PG in PBS) 2 and 24 hrs later. Control mice received ATMP without 25HC3S. Mortality was monitored for 10 days.

[6] = system: acute liver failure induced by acetaminophen; assay: Acetaminophen (ATMP) 500 mg/kg acute liver failure in mice, serum markers (Example 1A); assay type: in vivo
Method: (§1) Female mice were peritoneally-injected with acetaminophen (500 mg/kg, in 10% ethanol in PBS) either 0.5 or 2 hrs before being treated by administration of 25HC3S (20 or 25 mg/kg, 10% propylene glycol in PBS). Sera were collected 24 or 48 hrs following acetaminophen administration and enzymatic activities and other serum parameters were measured.

[7] = system: acute liver failure, as induced by PO administration of acetaminophen; assay: ATMP 300 mg/kg PO in mice, serum chemistry and body weight (Example 2); assay type: in vivo; conditions: 25HC3S 25 mg/kg IP or PO, 1 hour and 24 hours after ATMP 300 mg/kg PO; vs route-matched vehicle
Method: Mice were challenged with acetaminophen (300 mg/kg PO) and then treated with vehicle or 25HC3S (25 mg/kg) by IP injection or PO gavage, one (1) hour and 24 hours after acetaminophen challenge. Measurements and samples included whole blood for serum and clinical chemistry analysis (ALT, AST, ALK, LDH, BUN and glucose) and livers and kidneys for formalin fixation and histology.

[8] = Level of 25HC3S in blood and tissues after administration (Example 1A, FIG. 3); assay type: in vivo, mice
Method: FIGS. 3A and B. Concentration of 25HC3S in A, blood and B, the indicated tissues of rats subjected to high levels of ATMP.
as §1
FIGS. 3A and 3B show the level of 25HC3S in blood (3A) and the indicated tissues (3B) at the indicated times after administration.

mortality induced by LPS = assay: Mortality induced by LPS, pretreatment with 25HC3S (Example 6C); assay type: in vivo, C57BL/6J mice; conditions: LPS 4 mg/kg IV; 25HC3S 50 mg/kg 2 hrs before LPS; as of day 3; control 40%
Method: A further experiment to examine the effects of pretreatment of 25HC3S on mortality induced by LPS was conducted. In this experiment, 11-week-old female C57BL/6J mice were IV-injected with LPS (4 mg/kg in PBS). The mice were treated by administration of 25HC3S (50 mg/kg, 10% propylene glycol in PBS) 2 hrs before LPS administration, and mortality (% survival) was monitored. The results are presented below and in FIG. 9C.

[9] = system: heart ischemia-reperfusion injury; assay: Heart ischemia-reperfusion in mice (Example 4); assay type: in vivo, C67B16 mice
Method: Wild-type C67B16 mice, both males and females, were used in the experiment. After anesthesia, the thorax of each mouse was opened and the heart was subject to a 45-minute ischemic period by ligation of the left anterior descending coronary artery, and then reperfusion was allowed by removing the coronary arterial obstruction. The thorax was closed, and mice were allowed to recover for 24 hours. All animals were sacrificed at the end of the study, 24 h after the procedure, to gain access to the heart tissue. The heart was frozen, sectioned into slices, and then stained to determine the infarct size.
Given the experience that 25-30% of the animals may die within the 24-hour period because of the procedure (occlusion of coronary artery), all groups included 12 animals. The vehicle treated group (12 mice) was compared with 25HC3S treated groups (24 mice). One group of mice received the drug (25HC3S) just before ischemia/reperfusion (FR) and another group received drug about 16-20 h before FR. Administration was via the i.p. route with either vehicle (10% propylene glycol in PBS) or 25HC3S at a dose of 25 mg/kg in the same vehicle.

[10] = 24 hours post tMCAO, vs vehicle, difference not statistically significant
[11] = 24 hours, 3 days, 7 days post tMCAO, vs vehicle, trend of better scores
[12] = oral gavage pretreatment, higher dose, Day 3, to a lesser extent than injection
[13] = post-treatment by injection, first dose 30 min after occlusion, 3 days
[14] = pretreatment by IP injection a day before surgery, once daily 4 days
[15] = 25HC3S 20 or 25 mg/kg 2 hours after ATMP 500 mg/kg, within 24 hrs

For `C[C@H](CCCC(C)(C)O)[C@H]1CC[C@H]2[C@@H]3CC=C4C[C@@H](OS(=O)(=O)O)CC[C@]4(C)[C@H]3CC[C@]12C` [25HC3S, 5-cholesten-3, 25-diol, 3-sulfate], the brain lesion volume ([1]; 24 hours after tMCAO, vs vehicle, difference not statistically significant) was “smaller”, the “tissue viability (T2 relaxation time)” value ([1]; 24 hours post tMCAO) was “statistically higher tissue viability” and the “% edema” value [1, 10] was “smaller”. For the same compound, the edema volume [1, 10] was “smaller”, the “7-point Neuroscore” value [1, 11] was “no statistically significant differences” and the “20-point Neuroscore” value [1, 11] was “no statistically significant differences”. The “Limb Placing test” value [1, 11] was “no statistically significant differences”, the brain lesion volume ([1]; 7 days after tMCAO, vs vehicle, difference not statistically significant) was “smaller” and the “% edema” value ([1]; 7 days post tMCAO) was “nearly recovered; also recorded: some higher levels of edema”. For the same compound, the edema volume ([1]; 7 days post tMCAO) was “nearly recovered; also recorded: some higher levels of edema”, the “tissue viability (T2 relaxation time)” value ([1]; 7 days post tMCAO) was “statistically higher tissue viability” and the “irritation, discomfort or adverse side effects” value ([1]; ip injection in tMCAO rats) was “did not cause irritation, discomfort, or any adverse side effects”. The body weight recovery ([1]; starting from Day 4 after tMCAO, vs vehicle) was “faster recovery in body weights”, the adverse effects ([2]; single oral dose 30, 100, 300, 600 mg suspension, monitored 7 days) was “No adverse effects were observed” and the tolerability ([2]; single oral dose 30-600 mg) was “well tolerated”. For the same compound, the bioavailability ([2]; single oral dose, plasma samples (FIG. 10)) was “high bioavailability”, the “serum BUN level” value [3, 12] was “reduced” and the serum creatinine level [3, 12] was “reduced”. For the same compound, the “serum BUN level” value [3, 13] was “reduced”, the serum creatinine level [3, 13] was “reduced” and the “serum BUN level” value [3, 14] was “significantly improved”. The serum creatinine level [3, 14] was “significantly improved”, the “survival (mortality monitored)” value ([4]; LPS 30 mg/kg IV) was “lived significantly longer” and the “survival (mortality monitored)” value ([4]; LPS 40 mg/kg IV) was “lived significantly longer”. For the same compound, the survival rate ([5]; 25HC3S 25 mg/kg ip 2 and 24 hrs after ATMP 600 mg/kg, monitored 10 days, vs control) was “much higher than that of control animals”, the “liver function (damage) markers ALT, AST, AKP and ADH” value ([5]; surviving mice, sera at 48 hours, vs control (ATMP and vehicle)) was “lower values of each enzyme” and the “decrease of serum ALT” value [6, 15] was 58%. The “decrease of serum AST” value [6, 15] was 45%, the “decrease of serum LDH” value [6, 15] was 60% and the “markers of liver and kidney function (ALT, AST, ALK, LDH, BUN, glucose)” value ([6]; 25HC3S 0.5 hours after ATMP, in 48 hrs) was “returned most markers of liver and kidney function to normal levels”. For the same compound, the “attenuation of body weight loss” value [7] was “no statistically significant attenuation”, the “attenuation of elevated clinical chemistry parameters (LDH, AST and ALT)” value [7] was “no statistically significant attenuation” and the half-life ([8]; female, mouse, blood, FIG. 3A, read-out: half life in circulation (converted)) was ~30 h. The tissue distribution ([8]; indicated tissues, FIG. 3B) was “widely distributed in different tissues”, the survival rate (mortality induced by LPS) was 100% and the size of infarction ([9]; 25HC3S 25 mg/kg i.p. just before or 16-20 h before ischemia/reperfusion, vs vehicle) was “no statistically significant difference”. The 24-hour survival rate ([9]; 25HC3S 25 mg/kg i.p., vehicle group 64%) was 86%.
